Assays:
Assay in all cases: selective drug sensitivity score (sDSS, relative to normal bone marrow) (sDSS (score)); higher = more potent and effective on the cell line relative to normal bone marrow cells
Conditions in all cases: 72 h
[1] = tested on: MOLT-16
[2] = tested on: P30-OHKUBO
[3] = tested on: NALM-16
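Note: ALL cell lines in 384-well plates, five doses spanning 10,000-fold, each plate scaled between vehicle and 100 µmol/L benzalkonium chloride controls, sDSS an adapted area-under-curve metric.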

SMILES | selective drug sensitivity score [1] | selective drug sensitivity score [2] | selective drug sensitivity score [3]
CNS(=O)(=O)Nc1nccc(Cc2c(C)c3ccc(Oc4ncccn4)cc3oc2=O)c1F (top concentration 1000 nM) | 1.42 | -1.18 | 0.72
C[C@H]1Oc2cc(cnc2N)-c2c(nn(C)c2C#N)CN(C)C(=O)c2ccc(F)cc21 (top concentration 1000 nM) | -0.32 | -0.02 | -0.72
CCc1cncnc1N1CCN(Cc2nc3cc(C(F)(F)F)ccc3[nH]2)CC1 (top concentration 10000 nM) | 4.86 | 5.26 | 0.06
CN(C)CC#Cc1ccc(OCCCc2sc(N3CCc4cccc(C(=O)Nc5nc6ccccc6s5)c4C3)nc2C(=O)O)c(F)c1 (top concentration 10000 nM) | 0.56 | -1.44 | -1.24
O=C(NC[C@H](O)CN1CCc2ccccc2C1)c1cc(NC2COC2)ncn1 (top concentration 10000 nM) | 1.54 | 0.84 | -0.06
O=C1Cc2cc(C(=O)NC3C[C@H]4CC[C@@H](C3)N4S(=O)(=O)CC3CCN(CCCC(F)(F)F)CC3)c(Cl)cc2N1 (stereo partly specified) (top concentration 10000 nM) | 0 | 0.5 | 0
CC/C(=C(\c1ccc(O)cc1)c1ccc(OCCN(C)C)cc1)c1ccccc1 [4-hydroxytamoxifen] (top concentration 10000 nM) | 3.02 | 4.12 | -2.88
COCC1(CO)C(=O)C2CCN1CC2 (stereo unspecified) [APR-246] (top concentration 10000 nM) | 1.04 | -0.76 | 2.44
Cc1sc2c(c1C)C(c1ccc(Cl)cc1)=N[C@@H](CC(=O)Nc1ccc(OCCOCCOCCOCCNc3cccc4c3C(=O)N(C3CCC(=O)NC3=O)C4=O)cc1)c1nnc(C)n1-2 (stereo partly specified) [ARV-825] (top concentration 300 nM) | 1.44 | 3.74 | 0.74
COc1cc(OC2CCN(C)CC2)ccc1Nc1ncc2c(n1)n(C1CCCC1)c(=O)n2C [AZ3146] (top concentration 10000 nM) | 0.44 | -0.06 | -2.56
CN(C)CCCOc1ccc(-c2ccc3ncc4c(c3c2)n(C2CCOCC2)c(=O)n4C)cn1 [AZD0156] (top concentration 1000 nM) | 0.54 | 2.04 | -0.06
N#Cc1ccc2[nH]c(O)c(-c3ccc(CN4CCOCC4)cn3)c2c1 [AZD-1080] (top concentration 10000 nM) | 0.38 | 1.78 | 0.48
CN(C)C/C=C/C(=O)Nc1cc2c(Nc3ccc(F)c(Cl)c3)ncnc2cc1O[C@H]1CCOC1 [Afatinib] (top concentration 1000 nM) | -0.34 | 1.56 | -0.84
O=C(Nc1ccc(OC(F)(F)Cl)cc1)c1cnc(N2CC[C@@H](O)C2)c(-c2cc[nH]n2)c1 [Asciminib] (top concentration 1000 nM) | 8.42 | -0.58 | -1.98
CC[C@@H]1C(=O)N(C)c2cnc(Nc3ccc(C(=O)NC4CCN(C)CC4)cc3OC)nc2N1C1CCCC1 [BI-2536] (top concentration 1000 nM) | 9.04 | 18.3 | 14.5
Cc1ccc(NC(=O)c2ccc(CN3CC[C@H](N(C)C)C3)c(C(F)(F)F)c2)cc1Nc1nccc(-c2cncnc2)n1 [Bafetinib] (top concentration 1000 nM) | 0 | 0 | 0
CC[C@H](NC(=O)[C@H](C)NC)C(=O)N1C[C@@H](O)C[C@H]1Cc1c(-c2[nH]c3cc(F)ccc3c2C[C@@H]2C[C@H](O)CN2C(=O)[C@H](CC)NC(=O)[C@H](C)NC)[nH]c2cc(F)ccc12 [Birinapant] (top concentration 1000 nM) | -1.7 | -0.1 | 0.5
COc1cc2nccc(Oc3ccc(NC(=O)C4(C(=O)Nc5ccc(F)cc5)CC4)cc3)c2cc1OC [Cabozantinib] (top concentration 1000 nM) | -3.62 | -3.62 | 2.68
CCCCCOC(=O)Nc1nc(=O)n([C@@H]2O[C@H](C)[C@@H](O)[C@H]2O)cc1F [Capecitabine] (top concentration 10000 nM) | -0.06 | -0.06 | -0.06
Nc1nc(Cl)nc2c1ncn2[C@H]1C[C@H](O)[C@@H](CO)O1 [Cladribine] (top concentration 1000 nM) | 1.06 | 8.06 | -8.24
CCN(CC)CCOc1ccc(/C(=C(/Cl)c2ccccc2)c2ccccc2)cc1 [Clomifene] (top concentration 10000 nM) | 0.92 | 3.22 | -2.88

SMILES | selective drug sensitivity score [1] | selective drug sensitivity score [2] | selective drug sensitivity score [3]
CO[C@@H](C(=O)N1Cc2[nH]nc(NC(=O)c3ccc(N4CCN(C)CC4)cc3)c2C1)c1ccccc1 [Danusertib] (top concentration 10000 nM) | 22.4 | 20 | -0.96
CC[C@@](C)(Nc1ccnc(-c2c[nH]c3ncccc23)n1)C(=O)NCC(F)(F)F [Decernotinib] (top concentration 10000 nM) | -3.94 | -3.94 | -3.94
CN1CCN(c2ccc3nc(-c4c(N)c5c(F)cccc5[nH]c4=O)[nH]c3c2)CC1 [Dovitinib] (top concentration 10000 nM) | -0.14 | 0.36 | 0.96
CC(C)(O)CNc1nc(Nc2ccnc(C(F)(F)F)c2)nc(-c2cccc(C(F)(F)F)n2)n1 [Enasidenib] (top concentration 10000 nM) | 0.1 | 1.2 | -0.8
CN1CCN(c2ccc(C(=O)Nc3n[nH]c4ccc(Cc5cc(F)cc(F)c5)cc34)c(NC3CCOCC3)c2)CC1 [Entrectinib] (top concentration 1000 nM) | -1.2 | -1.1 | 0.5
CNC(=O)c1ccc(N2C(=S)N(c3ccc(C#N)c(C(F)(F)F)c3)C(=O)C2(C)C)cc1F [Enzalutamide] (top concentration 10000 nM) | 1.48 | -0.52 | -0.82
Cn1cc(C2=C(c3cn(C4CCN(Cc5ccccn5)CC4)c4ccccc34)C(=O)NC2=O)c2ccccc21 [Enzastaurin] (top concentration 10000 nM) | 4.66 | 3.46 | 5.56
NS(=O)(=O)NCCNc1nonc1/C(=N/O)Nc1ccc(F)c(Br)c1 [Epacadostat] (top concentration 10000 nM) | -0.06 | -0.06 | -0.26
CCOc1ccccc1-n1c(C(C)N2CCN(C(=O)COc3ccc(Cl)cc3)CC2)nc2ccccc2c1=O (stereo unspecified) [Erastin] (top concentration 10000 nM) | 23 | 9.54 | 9.34
COc1cc(OC)cc(N(CCNC(C)C)c2ccc3ncc(-c4cnn(C)c4)nc3c2)c1 [Erdafitinib] (top concentration 1000 nM) | -0.56 | 1.74 | -0.56
CC(C)(C)NC(=O)[C@H]1CC[C@H]2[C@@H]3CC[C@H]4NC(=O)C=C[C@]4(C)[C@H]3CC[C@]12C [Finasteride] (top concentration 10000 nM) | -0.52 | -0.52 | -0.52
O=c1[nH]c(=O)n([C@H]2C[C@H](O)[C@@H](CO)O2)cc1F [Floxuridine] (top concentration 10000 nM) | 32.8 | 37 | 10.2
CNc1nc(Nc2cn(C(C)(C)C#N)nc2C)ncc1C(F)(F)F [GNE-0877] (top concentration 1000 nM) | 0 | 0 | 0
CCCc1cc(C)[nH]c(=O)c1CNC(=O)c1cc(-c2ccnc(N3CCN(C)CC3)c2)cc2c1cnn2C(C)C [GSK343] (top concentration 1000 nM) | 0 | 0 | 0
O=C(O)c1ccc(O)c2ncccc12 [IOX-1] (top concentration 100000 nM) | 3.74 | 3.04 | 4.64
CC(=O)[C@]1(O)Cc2c(O)c3c(c(O)c2[C@@H](O[C@H]2C[C@H](N)[C@H](O)[C@H](C)O2)C1)C(=O)c1ccccc1C3=O [Idarubicin] (top concentration 1000 nM) | 15.9 | 3.94 | -2.56
COc1cc2nccc(Oc3ccc(NC(=O)NC4CC4)c(Cl)c3)c2cc1C(N)=O [Lenvatinib] (top concentration 2500 nM) | -0.04 | -0.14 | -0.24
N#Cc1ccc(C(c2ccc(C#N)cc2)n2cncn2)cc1 [Letrozole] (top concentration 10000 nM) | -0.04 | -0.04 | -0.04
CCNCCS(=O)(=O)NC[C@@]1(c2ccccc2)SC(NC(=O)C(C)(C)C)=NN1C(=O)C(C)(C)C [Litronesib] (top concentration 1000 nM) | 20.2 | 19.6 | 14.3
CC[C@H](C)C(=O)O[C@H]1C[C@@H](C)C=C2C=C[C@H](C)[C@H](CC[C@@H]3C[C@@H](O)CC(=O)O3)[C@H]21 [Lovastatin] (top concentration 10000 nM) | 1.7 | 2.5 | -0.1
Cn1cc(-c2cnn3c(N)c(Br)c([C@@H]4CCCNC4)nc23)cn1 [MK-8776] (top concentration 2500 nM) | 1.44 | -1.16 | 1.14

Reference: the supplement of paper PMC8967900
